9 compounds from PubChem BioAssay (NCI) can be followed below.

Test systems include 786-0 renal; K-562 leukemia; MDA-MB-231 breast; BT-549 breast; HCT-15 colon; CAKI-1 renal; CCRF-CEM leukemia; A549 NSCLC; OVCAR-5 ovarian; NCI-H226 lung.
Holding throughout (assay): NCI anticancer screen, dose series, 48 h

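Grown in 96-well plates, cells were treated for 48 hours with each compound at five concentrations. Insufficient inhibition: endpoint recorded as highest concentration tested. GI50 is the concentration that inhibits growth by half. TGI is the concentration that stops growth completely.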 Where only a bound is given, the exact number is not on record here.

On to `CC(=O)O[C@]1(C(C)=O)CC[C@H]2[C@@H]3C=C(C)C4=CC(=O)CC[C@]4(C)[C@H]3CC[C@@]21C`, for which the GI50 in the assay on 786-0 renal was above 80.7 µM; in the assay with K-562 leukemia it was 20.7 µM; in the assay with MDA-MB-231 breast it was above 100 µM; in the assay on BT-549 breast, 37.4 µM; in the assay with HCT-15 colon it was above 100 µM; with CAKI-1 renal it was above 100 µM. Moreover, the GI50 in the assay on CCRF-CEM leukemia was above 80.4 µM; in the assay with A549 NSCLC, above 78.1 µM; in the assay on OVCAR-5 ovarian it was above 100 µM; in the assay on NCI-H226 lung, above 83.7 µM. The TGI in the assay on 786-0 renal, in the assay with K-562 leukemia, in the assay with MDA-MB-231 breast, in the assay with BT-549 breast, in the assay with HCT-15 colon and in the assay on CAKI-1 renal was above 100 µM each time. The TGI with CCRF-CEM leukemia, in the assay with A549 NSCLC, in the assay with OVCAR-5 ovarian and in the assay on NCI-H226 lung was above 100 µM throughout.

Consider `Cn1ccnc1C(=O)/C=C/c1ccccc1`, for which the GI50 in the assay on 786-0 renal was 4.34 µM; in the assay with K-562 leukemia, 2.74 µM; in the assay on MDA-MB-231 breast, 3.39 µM; with BT-549 breast, 3.63 µM; in the assay on HCT-15 colon, 2.77 µM; with CAKI-1 renal, 3.88 µM. Besides, the GI50 in the assay on CCRF-CEM leukemia is 2.7 µM; in the assay with A549 NSCLC, 2.98 µM; in the assay on OVCAR-5 ovarian, 13.7 µM; in the assay with NCI-H226 lung, 3.24 µM. For the same compound, the TGI with 786-0 renal came out at 16.6 µM; with K-562 leukemia, 6.86 µM; with MDA-MB-231 breast, 16.8 µM; in the assay with BT-549 breast, 8.48 µM; in the assay on HCT-15 colon, 13.8 µM; with CAKI-1 renal, 19 µM. Also, the TGI in the assay on CCRF-CEM leukemia came out at 7.17 µM; with A549 NSCLC, 11.5 µM; with OVCAR-5 ovarian, 27.8 µM; with NCI-H226 lung, 14.9 µM.

Turning to `CCCCCCCCCc1cccc(N2C(N)=NC(N)=NC2(C)C)c1`, the TGI in the assay with 786-0 renal was 1.3 µM; in the assay with MDA-MB-231 breast, 3.37 µM; in the assay with BT-549 breast, 3.86 µM; in the assay on HCT-15 colon, 0.169 µM; in the assay with CAKI-1 renal, 2.5 µM; in the assay on CCRF-CEM leukemia, above 100 µM. The TGI in the assay with A549 NSCLC amounted to 4.26 µM; in the assay with OVCAR-5 ovarian, 4.67 µM; with NCI-H226 lung it was 61.2 µM.

Take `CN1CCN(c2ccc3nc(-c4ccc5nc(-c6ccc(OCCC(C)(C)C)cc6)[nH]c5c4)[nH]c3c2)CC1`: the GI50 was 2.7 µM with 786-0 renal; 2.85 µM in the assay with MDA-MB-231 breast; 17.5 µM in the assay with BT-549 breast; 12.1 µM with HCT-15 colon; 4.15 µM in the assay with CAKI-1 renal; 2.72 µM with CCRF-CEM leukemia. Also, the GI50 is 4.69 µM in the assay on A549 NSCLC, 2.96 µM in the assay on OVCAR-5 ovarian and 23.8 µM with NCI-H226 lung. The TGI stood at 8.33 µM in the assay on 786-0 renal; 5.83 µM in the assay with MDA-MB-231 breast; 40.1 µM with BT-549 breast; 28.2 µM in the assay on HCT-15 colon; 15.7 µM in the assay on CAKI-1 renal; 7.34 µM in the assay on CCRF-CEM leukemia. Also, the TGI in the assay on A549 NSCLC is 17.7 µM; in the assay on OVCAR-5 ovarian it was 9.96 µM; in the assay on NCI-H226 lung, 52.2 µM.

With `C=C1CC/C=C(\C)C(=O)C[C@@H]2[C@@H]1CC2(C)C`, the TGI is 6.69 µM in the assay on 786-0 renal; above 100 µM in the assay with K-562 leukemia; 28.6 µM with MDA-MB-231 breast; 11.6 µM with BT-549 breast; 3.23 µM in the assay with HCT-15 colon; 3.01 µM in the assay on CAKI-1 renal. The TGI in the assay on A549 NSCLC was above 56 µM; in the assay with OVCAR-5 ovarian, 27.3 µM; with NCI-H226 lung it was 42.8 µM.

Take `O=C(Nc1ccccc1)NS(=O)(=O)c1ccc(-n2nc3c(c2-c2ccc(Cl)cc2)Cc2ccccc2-3)cc1`: the GI50 in the assay on 786-0 renal is 27.5 µM; in the assay with K-562 leukemia, 4.66 µM; with MDA-MB-231 breast, 14.7 µM; with BT-549 breast, 21 µM; in the assay with HCT-15 colon, 18.5 µM; in the assay with CAKI-1 renal it was 4.37 µM. Moreover, the GI50 was 3.21 µM in the assay on CCRF-CEM leukemia, 24.5 µM in the assay with A549 NSCLC and 15.5 µM in the assay with NCI-H226 lung. Moreover, the TGI was above 100 µM in the assay on 786-0 renal; 21.9 µM with K-562 leukemia; 63.3 µM in the assay on MDA-MB-231 breast; 65.9 µM in the assay with BT-549 breast; 69.7 µM in the assay with HCT-15 colon; 29.2 µM with CAKI-1 renal. Also, the results for the TGI in the assay on CCRF-CEM leukemia, in the assay on A549 NSCLC and with NCI-H226 lung were 10.2 µM, above 100 µM and 61.9 µM, respectively.

Take `CCC1CCc2nc3sc(C(=O)Nc4cccc(F)c4)c(N)c3cc2C1` (configuration not stated): the GI50 in the assay on 786-0 renal was 0.701 µM; with MDA-MB-231 breast, above 100 µM; with BT-549 breast, above 100 µM; in the assay with HCT-15 colon it was 0.428 µM; in the assay on CAKI-1 renal it was 0.867 µM; with CCRF-CEM leukemia, 1.79 µM. The GI50 in the assay on A549 NSCLC, in the assay with OVCAR-5 ovarian and in the assay with NCI-H226 lung was above 100 µM each time. Further, the TGI in the assay on 786-0 renal, with MDA-MB-231 breast, in the assay with BT-549 breast, with HCT-15 colon, in the assay with CAKI-1 renal and in the assay with CCRF-CEM leukemia was above 100 µM in each case. Also, the TGI with A549 NSCLC, in the assay on OVCAR-5 ovarian and in the assay with NCI-H226 lung was above 100 µM throughout.

Take `COc1cc(O)c(C(=O)/C=C/c2ccc(O)cc2)c(O)c1[C@@H]1C[C@H](CCc2ccc(O)cc2)O[C@H](c2ccc(O)cc2)C1`: the GI50 in the assay on 786-0 renal was 2.47 µM; with MDA-MB-231 breast, 2.26 µM; in the assay with BT-549 breast, 4.36 µM; in the assay with HCT-15 colon it was 3.43 µM; in the assay with CAKI-1 renal, 13.6 µM; with CCRF-CEM leukemia, 3.28 µM. Besides, the GI50 with OVCAR-5 ovarian was 7.53 µM; in the assay with NCI-H226 lung, 14.8 µM. In addition, the TGI in the assay on 786-0 renal amounted to 7.1 µM; in the assay with MDA-MB-231 breast it was 6.32 µM; with BT-549 breast it was 17.6 µM; in the assay on HCT-15 colon, 11.9 µM; in the assay with CAKI-1 renal it was 28.9 µM; in the assay with CCRF-CEM leukemia, 10.6 µM. Also, the TGI in the assay with OVCAR-5 ovarian worked out at 19.9 µM; in the assay with NCI-H226 lung it was 61.2 µM.

Take `CCOC(=O)C(=Cc1ccc(Oc2ccccc2)cc1)C(=O)OCC`: the TGI in the assay on 786-0 renal worked out at 3.47 µM; with K-562 leukemia, 5.27 µM; in the assay with BT-549 breast it was 5.11 µM; with HCT-15 colon, 6.35 µM; in the assay with CAKI-1 renal, 28.4 µM; with CCRF-CEM leukemia, 6.75 µM. Also, the TGI in the assay on A549 NSCLC was 22.6 µM; in the assay on OVCAR-5 ovarian it was 14 µM; with NCI-H226 lung it was 12.1 µM.
